US12104170B2, “Methods for deriving dopaminergic neurons from pluripotent stem cells” (MINERVA BIOTECHNOLOGIES CORPORATION, priority 2020, dated 2024)

B1: WNT3A: beta-catenin agonist added to pluripotent stem cell media at 100 ng/mL for 48 hours before differentiation (protein, UniProt P56704 19-352, looked up)
Protein Wnt-3a: SYPIWWSLAVGPQYSSLGSQPILCASIPGLVPKQLRFCRNYVEIMPSVAEGIKIGIQECQHQFRGRRWNCTTVHDSLAIFGPVLDKATRESAFVHAIASAGVAFAVTRSCAEGTAAICGCSSRHQGSPGKGWKWGGCSEDIEFGGMVSREFADARENRPDARSAMNRHNNEAGRQAIASHMHLKCKCHGLSGSCEVKTCWWSQPDFRAIGDFLKDKYDSASEMVVEKHRESRGWVETLRPRYTYFKVPTERDLVYYEASPNFCEPNPETGSFGTRDRTCNVSSHGIDGCDLLCCGRGHNARAERRREKCRCVFHWCCYVSCQECTRVYDVHTCK

Experiments:
[1] = test system: human iPS cells differentiating to dopaminergic neurons; assay: Addition of forms of vitamin B6 or vitamin A around Day 20 of differentiation (morphology, markers, neural projections); assay type: cell-based; conditions: for empirically determined optimal concentration: added around Day 20 and onward, final concentration; for effect of adding vitamin B6 form on dopaminergic neurons: added starting around Day 21, retinol, retinyl acetate and vitamin C in all conditions (FIG. 16)
Method: In this next set of experiments, we followed Protocol A, except that around Day 20, the neural base media will be exchanged for one that contains approximately 1.2 uM retinol and 0.17 uM retinyl acetate and various other forms of vitamin B6 were then added (FIG. 1, Example 2). Resultant cells were analyzed for cell morphology, yield of TH and DAT positive cells relative to Tuj1 positivity and the number and length of neural projections as an indicator of engraftment potential.
We assessed the effects of various forms of vitamin B6 on differentiation of dopaminergic neurons from human iPS cells. […] The differentiation protocol called Protocol A (FIG. 1) was followed until Day 20. From Day 21 onward, to the basal media was added vitamin A in the form of retinol at 1.2 uM and retinyl acetate at 0.17 uM and vitamin C as ascorbic acid-2-phosphate at a final concentration of about 200 nM. It is important to note that the neural basal media that was used in all conditions contained 10 uM pyridoxal, so pyridoxal at this low concentration was present from the onset of differentiation.
In addition to the vitamins A and C which were constant throughout all conditions, various forms of vitamin B6 were added: 16 uM pyridoxine (FIG. 12A-12K), or 11 uM pyridoxal (FIG. 13A-13K), or 20 uM pyridoxal-5′-phosphate also known as PLP (FIG. 14A-14K), or all of the vitamin Bs. To assess the quality of the resultant dopaminergic neurons we examined: a) the percentage of the GIRK2 positive cells that were also positive for TH, Tyrosine hydroxylase which is an enzyme that mediates the conversion of L-tyrosine to L-3,4-dihydroxyphenylalanine, which is the rate limiting step in dopamine synthesis; this percentage should be high as an indicator of yield of the desired cell type -dopaminergic neurons; b) The percentage of TUJ positive neurons that were also TH positive; TUJ is a pleiotropic marker of neurons; only those that are TH positive are truly dopaminergic neurons; c) the percentage of the TUJ positive cells that are also positive for DAT, the dopamine transporter protein; d) the shape of the cell body should have the characteristic elongated triangular shape of neurons; and e) the length and number of neural projections associated with being TH and DAT positive. For engraftment, the length and number of neural projections is considered to be the most important factor.

[2] = test system: human iPS cells differentiated to dopaminergic neurons; assay: Immunofluorescent staining for GIRK2, TH, DAT, Tuj1 and morphology (yield and purity of dopaminergic neurons); assay type: cell-based; conditions: iPSCs grown in E8 plus WNT3A for 48 hours before initiating differentiation
Method: On Day 24, immunofluorescent staining was performed to detect the presence of molecular markers of dopaminergic neuron progenitors generated using Protocol A (FIG. 2A-FIG. 2L) or Protocol C.2 (FIG. 3A-FIG. 3L). GIRK2 (G-protein-regulated inward-rectifier potassium channel 2) is expressed in dopaminergic neurons while Tuj1 (neuron-specific class Ill B-tubulin) is a pan-neural marker. TH (tyrosine hydroxylase) is considered a gold standard in the identification of dopaminergic neurons because it is an enzyme that catalyzes the conversion of L-tyrosine to L-3,4-dihydroxyphenylalanine, which is the rate limiting step in dopamine synthesis. DAT (dopamine active transporter) is equally important as it is the transmembrane protein that pumps dopamine from the synapse back into the cytosol. Both differentiation protocols produced cells that were positive for all appropriate molecular markers. […]
In addition to the vitamins A and C which were constant throughout all conditions, various forms of vitamin B6 were added: 16 uM pyridoxine (FIG. 12A-12K), or 11 uM pyridoxal (FIG. 13A-13K), or 20 uM pyridoxal-5′-phosphate also known as PLP (FIG. 14A-14K), or all of the vitamin Bs. […] FIG. 17 is a graph of the amount of dopamine and its metabolites, measured by HPLC, present in the conditioned media from only 200,000 cells taken at Day 30, Day 40, Day 50 or Day 60. […]

Molecule | empirically determined optimal concentration [1] [µM] | effect of adding vitamin B6 form on dopaminergic neurons [1] | survival of differentiating cells [2]
Cc1ncc(CO)c(C=O)c1O [pyridoxal] | 5 to 20 | greatly increase dopamine yield and engraftment potential | –
Cc1ncc(COP(=O)(O)O)c(C=O)c1O [pyridoxal-5′-phosphate] | 10 to 40 | greatly increase dopamine yield and engraftment potential | –
Cc1ncc(CO)c(CO)c1O [pyridoxine] | 10 to 20 | – | –
B1 | – | – | increased survival at Day 60
